Starred links: 1 amine or outer side, 2 acyl side, 3 side chain; linkers in the order of their positions; H or OH if unused. Non-standard residues stand in square brackets, D forms with d. Residues, ends and D or L forms follow the SMILES beside them. *: point of attachment. C20 diacid = O=C(O)CCCCCCCCCCCCCCCCCCC(=O)*; γGlu = O=C(O)[C@H](CCC(=O)[*:2])N[*:1]; Hyp = O=C(O)[C@@H]1C[C@@H](O)CN1; NMeD = CN[C@@H](CC(=O)O)C(=O)O

Series [1] addresses T1, human amylin receptors (Homo sapiens, UniProt O60896+P30988).
T1 construct: host or cells: CHO-K1/Ga15/AMY3 cells, further stably transfected with a CRE-luciferase plasmid
T1 sequence (P30988 25-474): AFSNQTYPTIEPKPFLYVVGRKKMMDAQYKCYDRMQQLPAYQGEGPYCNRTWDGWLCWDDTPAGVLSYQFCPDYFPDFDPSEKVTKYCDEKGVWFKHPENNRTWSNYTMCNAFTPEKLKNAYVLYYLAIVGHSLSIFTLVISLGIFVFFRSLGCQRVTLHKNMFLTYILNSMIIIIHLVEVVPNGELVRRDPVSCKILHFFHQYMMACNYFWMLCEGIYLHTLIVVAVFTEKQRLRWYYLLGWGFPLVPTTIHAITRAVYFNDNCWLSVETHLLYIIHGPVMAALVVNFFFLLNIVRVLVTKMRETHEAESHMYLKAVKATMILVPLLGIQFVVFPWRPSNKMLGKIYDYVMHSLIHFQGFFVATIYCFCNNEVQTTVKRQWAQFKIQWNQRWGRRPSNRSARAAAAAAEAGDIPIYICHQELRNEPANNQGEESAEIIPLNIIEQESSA
T1 sequence (O60896 24-148 partner): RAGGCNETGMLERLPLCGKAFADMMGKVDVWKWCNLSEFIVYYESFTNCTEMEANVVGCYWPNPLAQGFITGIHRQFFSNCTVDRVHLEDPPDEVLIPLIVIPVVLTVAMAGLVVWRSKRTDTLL
Briefly: Luciferase assay in stably transfected amylin receptor/CRE-luc CHO cell line. The class given is cell-based. The following applies: for Relative activity: EC50 ratio of Cagrilintide to the compound, Cagrilintide 100%; for EC50: amylin receptor/CRE-luc CHO cells, 24 hours incubation, luminescence.

Series [2] in a line: Heat accelerated stability assay, 40° C., detection on 10 d and 20 d. The class given is physicochemical. To be noted: 1 mg/mL, pH about 7.4, 40° C. The method, then: The derivatives (1 mg/mL) were mixed with sodium dihydrogen phosphate (1.42 mg/mL) and dissolved in ultrapure water. After adjusting pH to about 7.4 with hydrochloric acid/sodium hydroxide, the solution was filtered into a sterilized vial in a clean bench using a 0.22 μm sterile filter. The vial was then capped and placed into the stability test chamber at 40° C. Detections were made on 10d and 20d, and during the assay changes in the characteristics and properties of the polypeptides were observed and recorded. The sample was then centrifuged for 3 min at 10000 rpm at 4° C., and the supernatant was transferred to a liquid phase sample vial for detecting the concentration and purity of the polypeptides using liquid phase chromatography described as below.
Flow rate: 1.0 mL/min; Autosampler temperature: 25° C.; Column temperature: 25° C.; Detection wavelength: 214 nm; Mobile phase A: 110 mM phosphate buffer (pH 5.8): ACN=90:10; Mobile phase B: ACN: IPA: H2O=85:5:10; and Gradient of elution listed in Table 6: […]

Consider `CC[C@H](C)[C@H](NC(=O)[C@@H]1CCCN1C(=O)[C@H](CCCCN)NC(=O)[C@H](CC(C)C)NC(=O)[C@H](CC(N)=O)NC(=O)[C@H](CCCCN)NC(=O)[C@H](CO)NC(=O)[C@H](CO)NC(=O)[C@H](Cc1c[nH]cn1)NC(=O)[C@H](CCCNC(=N)N)NC(=O)[C@H](CC(C)C)NC(=O)[C@H](Cc1ccccc1)NC(=O)[C@H](CC(=O)O)NC(=O)[C@H](C)NC(=O)[C@H](CC(C)C)NC(=O)[C@H](CCCNC(=N)N)NC(=O)[C@H](CCC(N)=O)NC(=O)[C@@H](NC(=O)[C@H](C)NC(=O)[C@H](C)NC(=O)[C@@H](NC(=O)[C@H](CO)NC(=O)[C@H](CC(C)C)NC(=O)[C@H](CCC(N)=O)NC(=O)[C@H](CO)NC(=O)[C@H](C)NC(=O)CC[C@H](NC(=O)CCCCCCCCCCCCCCCCCCC(=O)O)C(=O)O)[C@@H](C)O)[C@@H](C)O)C(=O)N[C@@H](CC(C)C)C(=O)N1CCC[C@H]1C(=O)N1CCC[C@H]1C(=O)N[C@H](C(=O)N[C@@H](CC(N)=O)C(=O)N[C@H](C(=O)NCC(=O)N[C@@H](CO)C(=O)N[C@@H](CC(N)=O)C(=O)N[C@H](C(=O)N1C[C@H](O)C[C@H]1C(N)=O)[C@@H](C)O)C(C)C)[C@@H](C)O` [M53] ({C20 diacid-γGlu}-ASQLSTAATQRLADFLRHSSKNLKPILPPTNVGSNT[Hyp]-NH2), for which, in series [1], the Relative activity is reported as 200% and the EC50 was found to be 0.08 nM. Further, in series [2], the “Reduction in purity, 10 d” value turned out to be 11.82% and the “Reduction in purity, 20 d” value worked out at 19.98%.
Consider `CC[C@H](C)[C@H](NC(=O)[C@@H]1CCCN1C(=O)[C@H](CCCCN)NC(=O)[C@H](CC(C)C)NC(=O)[C@H](CC(N)=O)NC(=O)[C@H](CCC(N)=O)NC(=O)[C@H](CO)NC(=O)[C@H](CO)NC(=O)[C@H](Cc1c[nH]cn1)NC(=O)[C@H](CCCNC(=N)N)NC(=O)[C@H](CC(C)C)NC(=O)[C@H](Cc1ccccc1)NC(=O)[C@H](CC(=O)O)NC(=O)[C@H](C)NC(=O)[C@H](CC(C)C)NC(=O)[C@H](CCCNC(=N)N)NC(=O)[C@H](CCC(N)=O)NC(=O)[C@@H](NC(=O)[C@H](C)NC(=O)[C@H](C)NC(=O)[C@@H](NC(=O)[C@H](CO)NC(=O)[C@H](CC(C)C)NC(=O)[C@H](CCC(N)=O)NC(=O)[C@H](CO)NC(=O)[C@H](C)NC(=O)CC[C@H](NC(=O)CCCCCCCCCCCCCCCCCCC(=O)O)C(=O)O)[C@@H](C)O)[C@@H](C)O)C(=O)N[C@@H](CC(C)C)C(=O)N1CCC[C@H]1C(=O)N1CCC[C@H]1C(=O)N[C@H](C(=O)N[C@@H](CC(N)=O)C(=O)N[C@H](C(=O)NCC(=O)N[C@@H](CO)C(=O)N[C@@H](CC(N)=O)C(=O)N[C@H](C(=O)N1C[C@H](O)C[C@H]1C(N)=O)[C@@H](C)O)C(C)C)[C@@H](C)O` [M46] ({C20 diacid-γGlu}-ASQLSTAATQRLADFLRHSSQNLKPILPPTNVGSNT[Hyp]-NH2), for which, in series [1], the Relative activity was found to be 150% and it took 0.06 nM to reach a half-maximal effect (EC50). For the same compound, the “Reduction in purity, 10 d” value in series [2] is 8.69%.
In the case of `CC[C@H](C)[C@H](NC(=O)[C@@H]1CCCN1C(=O)[C@H](CCCCN)NC(=O)[C@H](CC(C)C)NC(=O)[C@H](CC(N)=O)NC(=O)[C@H](Cc1c[nH]cn1)NC(=O)[C@H](CO)NC(=O)[C@H](CO)NC(=O)[C@H](Cc1c[nH]cn1)NC(=O)[C@H](CCCNC(=N)N)NC(=O)[C@H](CC(C)C)NC(=O)[C@H](Cc1ccccc1)NC(=O)[C@H](CC(=O)O)NC(=O)[C@H](C)NC(=O)[C@H](CC(C)C)NC(=O)[C@H](CCCNC(=N)N)NC(=O)[C@H](CCC(N)=O)NC(=O)[C@@H](NC(=O)[C@H](C)NC(=O)[C@H](C)NC(=O)[C@@H](NC(=O)[C@H](CO)NC(=O)[C@H](CC(C)C)NC(=O)[C@H](CCC(N)=O)NC(=O)[C@H](CO)NC(=O)[C@H](C)NC(=O)CC[C@H](NC(=O)CCCCCCCCCCCCCCCCCCC(=O)O)C(=O)O)[C@@H](C)O)[C@@H](C)O)C(=O)N[C@@H](CC(C)C)C(=O)N1CCC[C@H]1C(=O)N1CCC[C@H]1C(=O)N[C@H](C(=O)N[C@@H](CC(N)=O)C(=O)N[C@H](C(=O)NCC(=O)N[C@@H](CO)C(=O)N[C@@H](CC(N)=O)C(=O)N[C@H](C(=O)N1C[C@H](O)C[C@H]1C(N)=O)[C@@H](C)O)C(C)C)[C@@H](C)O` [M52] ({C20 diacid-γGlu}-ASQLSTAATQRLADFLRHSSHNLKPILPPTNVGSNT[Hyp]-NH2), in series [1], the Relative activity was 178% and the EC50 was 0.09 nM. In series [2], the “Reduction in purity, 10 d” value turned out to be 7.91% and the “Reduction in purity, 20 d” value is listed as 15.42%.
The matching figures for `CC[C@H](C)[C@H](NC(=O)[C@@H]1CCCN1C(=O)[C@H](CCCCN)NC(=O)[C@H](CC(C)C)NC(=O)[C@H](CC(N)=O)NC(=O)[C@H](C)NC(=O)[C@H](CO)NC(=O)[C@H](CO)NC(=O)[C@H](Cc1c[nH]cn1)NC(=O)[C@H](CCCNC(=N)N)NC(=O)[C@H](CC(C)C)NC(=O)[C@H](Cc1ccccc1)NC(=O)[C@H](CC(=O)O)NC(=O)[C@H](C)NC(=O)[C@H](CC(C)C)NC(=O)[C@H](CCCNC(=N)N)NC(=O)[C@H](CCC(N)=O)NC(=O)[C@@H](NC(=O)[C@H](C)NC(=O)[C@H](C)NC(=O)[C@@H](NC(=O)[C@H](CO)NC(=O)[C@H](CC(C)C)NC(=O)[C@H](CCC(N)=O)NC(=O)[C@H](CO)NC(=O)[C@H](C)NC(=O)CC[C@H](NC(=O)CCCCCCCCCCCCCCCCCCC(=O)O)C(=O)O)[C@@H](C)O)[C@@H](C)O)C(=O)N[C@@H](CC(C)C)C(=O)N1CCC[C@H]1C(=O)N1CCC[C@H]1C(=O)N[C@H](C(=O)N[C@@H](CC(N)=O)C(=O)N[C@H](C(=O)NCC(=O)N[C@@H](CO)C(=O)N[C@@H](CC(N)=O)C(=O)N[C@H](C(=O)N1C[C@H](O)C[C@H]1C(N)=O)[C@@H](C)O)C(C)C)[C@@H](C)O` [M50] ({C20 diacid-γGlu}-ASQLSTAATQRLADFLRHSSANLKPILPPTNVGSNT[Hyp]-NH2): 186%, 0.07 nM, 7.76% and 14.46%.
Regarding `CC[C@H](C)[C@H](NC(=O)[C@@H]1CCCN1C(=O)[C@H](CCCCN)NC(=O)[C@H](CC(C)C)NC(=O)[C@H](CC(N)=O)NC(=O)[C@H](CCC(=O)O)NC(=O)[C@H](CO)NC(=O)[C@H](CO)NC(=O)[C@H](Cc1c[nH]cn1)NC(=O)[C@H](CCCNC(=N)N)NC(=O)[C@H](CC(C)C)NC(=O)[C@H](Cc1ccccc1)NC(=O)[C@H](CC(=O)O)NC(=O)[C@H](C)NC(=O)[C@H](CC(C)C)NC(=O)[C@H](CCCNC(=N)N)NC(=O)[C@H](CCC(N)=O)NC(=O)[C@@H](NC(=O)[C@H](C)NC(=O)[C@H](C)NC(=O)[C@@H](NC(=O)[C@H](CO)NC(=O)[C@H](CC(C)C)NC(=O)[C@H](CCC(N)=O)NC(=O)[C@H](CO)NC(=O)[C@H](C)NC(=O)CC[C@H](NC(=O)CCCCCCCCCCCCCCCCCCC(=O)O)C(=O)O)[C@@H](C)O)[C@@H](C)O)C(=O)N[C@@H](CC(C)C)C(=O)N1CCC[C@H]1C(=O)N1CCC[C@H]1C(=O)N[C@H](C(=O)N[C@@H](CC(N)=O)C(=O)N[C@H](C(=O)NCC(=O)N[C@@H](CO)C(=O)N[C@@H](CC(N)=O)C(=O)N[C@H](C(=O)N1C[C@H](O)C[C@H]1C(N)=O)[C@@H](C)O)C(C)C)[C@@H](C)O` [M47] ({C20 diacid-γGlu}-ASQLSTAATQRLADFLRHSSENLKPILPPTNVGSNT[Hyp]-NH2), in series [1], the Relative activity was 113% and a half-maximal response (EC50) required 0.08 nM. Further, in series [2], the “Reduction in purity, 10 d” value was 9.25%.
On the same counts, the results for `CC[C@H](C)[C@H](NC(=O)[C@@H]1CCCN1C(=O)[C@H](CCCCN)NC(=O)[C@H](CC(C)C)NC(=O)[C@H](CC(=O)O)N(C)C(=O)[C@H](CC(N)=O)NC(=O)[C@H](CO)NC(=O)[C@H](CO)NC(=O)[C@H](Cc1c[nH]cn1)NC(=O)[C@H](CCCNC(=N)N)NC(=O)[C@H](CC(C)C)NC(=O)[C@H](Cc1ccccc1)NC(=O)[C@H](CC(=O)O)NC(=O)[C@H](C)NC(=O)[C@H](CC(C)C)NC(=O)[C@H](CCCNC(=N)N)NC(=O)[C@H](CCC(N)=O)NC(=O)[C@@H](NC(=O)[C@H](C)NC(=O)[C@H](C)NC(=O)[C@@H](NC(=O)[C@H](CO)NC(=O)[C@H](CC(C)C)NC(=O)[C@H](CCC(N)=O)NC(=O)[C@H](CO)NC(=O)[C@H](C)NC(=O)CC[C@H](NC(=O)CCCCCCCCCCCCCCCCCCC(=O)O)C(=O)O)[C@@H](C)O)[C@@H](C)O)C(=O)N[C@@H](CC(C)C)C(=O)N1CCC[C@H]1C(=O)N1CCC[C@H]1C(=O)N[C@H](C(=O)N[C@@H](CC(N)=O)C(=O)N[C@H](C(=O)NCC(=O)N[C@@H](CO)C(=O)N[C@@H](CC(N)=O)C(=O)N[C@H](C(=O)N1C[C@H](O)C[C@H]1C(N)=O)[C@@H](C)O)C(C)C)[C@@H](C)O` [M45] ({C20 diacid-γGlu}-ASQLSTAATQRLADFLRHSSN[NMeD]LKPILPPTNVGSNT[Hyp]-NH2) are 129%, 0.07 nM and 6.54%.

One may read the EC50 as the concentration giving half of the maximal effect. A high value points to a less potent agent.
